Results reported in paper PMC8562773, “Perfluoroalkyl Carboxylic Acids Interact with the Human Bile Acid Transporter NTCP” (Livers, 2021).
Values joined by “and” are separate entries in the source; they are usually repeats but may differ in a detail not shown here. Equal values may be shown once. Read-outs that look alike come from different tables or passages of the source.

Experiments:
[1] = target: T1, human Na+/taurocholate cotransporting polypeptide (NTCP) (Homo sapiens, UniProt Q14973); assay: Inhibition of NTCP-mediated [3H]-taurocholate uptake in NTCP-expressing HEK293 cells; assay type: cell-based; settings: for statistically significant inhibition of taurocholate uptake / inhibition of NTCP-mediated taurocholate uptake: 10 μM PFCA; for statistically significant inhibition of taurocholate uptake: 1 μM taurocholate, p < 0.05 vs control; for IC50 / inhibition of NTCP-mediated taurocholate uptake: 1 μM [3H]-taurocholate, 1 min, 37 °C; for IC50: sodium-containing buffer, 3 independent experiments; for inhibition of NTCP-mediated taurocholate uptake: NTCP-HEK293
T1 construct: containing the human NTCP open reading frame with a C-terminal 6-His tag; expressed in transfected cells
T1 sequence (Q14973 1-349): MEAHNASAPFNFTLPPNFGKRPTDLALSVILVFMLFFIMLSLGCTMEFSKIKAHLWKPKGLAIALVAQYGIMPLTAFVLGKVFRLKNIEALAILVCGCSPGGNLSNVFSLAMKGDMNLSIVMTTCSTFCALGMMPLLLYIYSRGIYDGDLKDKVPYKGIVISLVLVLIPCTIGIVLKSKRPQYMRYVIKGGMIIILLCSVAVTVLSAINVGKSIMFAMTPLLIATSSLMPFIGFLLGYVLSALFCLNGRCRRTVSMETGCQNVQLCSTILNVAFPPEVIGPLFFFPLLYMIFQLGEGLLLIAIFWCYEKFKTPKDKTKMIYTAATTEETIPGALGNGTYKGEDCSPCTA
Procedure: (§1) Flp-In™-293 (HEK293) cells were purchased from Thermo Fisher Scientific (Waltham, MA, USA) and grown at 37 °C in a humidified 5% CO2 atmosphere in Dulbecco’s Modified Eagle’s Medium (DMEM) obtained from the American Type Culture Collection (ATCC, Manassas, VA, USA: 30-2002). The medium was supplemented with 10% fetal bovine serum (FBS) (Hyclone, Logan, UT, USA), and 100 U/mL penicillin, 100 μg/mL streptomycin (Thermo fisher Scientific). The pcDNA5/FRT plasmid containing the human NTCP open reading frame with a C-terminal 6-His tag was used to generate a stable NTCP-expressing cell line using hygromycin selection. A single clone was isolated using a cloning cylinder and cultivated in the above DMEM with the addition of 500 μg/mL hygromycin (Thermo Fisher Scientific). For transport experiments, cells were plated on poly-D-lysine-coated 24-well plates at 300,000 cells per well for uptake experiments after 48 h or at 200,000 cells per well for uptake experiments after 72 h. Uptake experiments and LC-MS/MS analysis were performed at the time points indicated in the figure legends as previously described.
To investigate whether PFCAs would interact with the human Na^+/taurocholate cotransporting polypeptide (NTCP), we determined to what extent perfluorinated carboxylic acids with chain lengths from 3 to 18 carbon atoms (C3 to C18) would inhibit NTCP-mediated taurocholate uptake. For these experiments, we measured the uptake of 1 μM taurocholate in the presence and absence of 10 or 100 μM of each of the PFCAs.
Figure 1. […] Uptake was measured in sodium-containing (NaCl) or sodium-free (ChCl) buffer for 1 min at 37 °C and corrected for protein. Uptake then was normalized to control (NaCl) and individual values of 1 or 2 experiments performed in triplicates are presented. Bars represent the mean ± SD, asterisks indicate significant differences to the control (NaCl) at p < 0.05.
For these experiments, NTCP-mediated uptake of 1 μM taurocholate was measured in the absence and presence of increasing concentrations of perfluorinated compounds. For PFOA and PFNA, the concentrations ranged from 0.1 to 1000 μM, while the concentrations for PFDA were between 0.1 and 100 μM, due to solubility limitations.
Figure 2. […] Uptake of 1 μM [^3H]-taurocholate was measured into NTCP-expressing HEK293 cells in the absence or presence of increasing concentrations of (A) perfluorooctanoic acid (PFOA), (B) perfluorononanoic acid (PFNA), or (C) perfluorodecanoic acid (PFDA). Uptake was measured for 1 min at 37 °C in a sodium-containing buffer and corrected for protein. After conversion of the data to percent of control, IC50 values were calculated using GraphPad Prism V9 using the “One site-Fit logIC50” equation from 3 independent experiments performed in triplicates. The 95% confidence intervals are given in parentheses.

NTCP = system: NTCP; design: method as in PMID 26001962; settings: perfluoroalkyl sulfonates, previously obtained; cited from earlier work
[2] = target: T1, human Na+/taurocholate cotransporting polypeptide (NTCP); assay: Inhibition kinetics of NTCP-mediated taurocholate transport in NTCP-expressing HEK293 cells; assay type: cell-based; settings: for type of inhibition of NTCP-mediated taurocholate uptake: inhibition kinetics, best fit
Procedure: as §1
Figure 3. Kinetics of taurocholate uptake in the absence and presence of PFOA, PFNA, and PFDA. Uptake of increasing concentrations of [^3H]-taurocholate into NTCP-expressing HEK293 cells was measured for 15 s (within the initial linear rate) at 37 °C in a sodium-containing buffer in the absence or presence of 10 and 100 μM of (A) PFOA, (B) PFDA, or (C) PFNA. After correction for protein, the results were analyzed using GraphPad Prism V9 using the “Enzyme kinetics–Inhibition” equations. […] Mean ± SD values of two independent experiments performed in triplicate are shown.

human NTCP = target: T2, human NTCP (Homo sapiens, UniProt Q14973); assay: Sodium-dependent NTCP-mediated uptake of PFCAs into NTCP-expressing HEK293 cells (LC-MS/MS); assay type: in vitro ADME; settings: for transport by NTCP (substrate, words): sodium-dependent uptake in NTCP-HEK293
T2 construct: containing the human NTCP open reading frame with a C-terminal 6-His tag; expressed in transfected cells
T2 sequence (Q14973 1-349): T1 sequence (Q14973 1-349)
Procedure: as §1
To resolve whether PFOA, PFNA, and PFDA were substrates of NTCP, we measured the transport of these compounds. […] To better characterize this transport, we wanted to perform kinetics experiments and determine the Km and Vmax values for the three compounds. Therefore, in Figure 4, we determined the initial linear rate conditions in which to perform the kinetics experiments. We evaluated the time-dependent uptake of PFOA, PFNA, and PFDA at 10 and 300 μM in NTCP-expressing HEK293 cells in sodium-containing and sodium-free buffer. While there is a time-dependent uptake of all three PFCAs, most likely due to organic anion transporters expressed in HEK293 cells, NTCP only transports its substrates in the presence of sodium. Therefore, we calculated the net sodium-dependent uptake. Based on the time-dependent sodium-dependent uptake results shown in Figure 4, we used 20 s for PFOA (Figure 4A), 30 s for PFNA (Figure 4B), and 1 min for PFDA (Figure 4C) to perform the concentration-dependent uptake kinetics.
Figure 4. Time dependency of NTCP-mediated PFOA, PFNA, and PFDA uptake. Uptake of (A) perfluorooctanoic acid (PFOA), (B) perfluorononanoic acid (PFNA), or (C) perfluorodecanoic acid (PFDA) was measured in NTCP-expressing HEK293 cells in sodium-containing (NaCl; solid lines) or sodium-free (ChCl; dotted lines) buffer at the indicated times at 37 °C and corrected for protein. The net sodium-dependent uptake (net; dashed lines) is also shown. The results are presented as means ± SD of two combined independent experiments performed in triplicates.
For the concentration-dependent uptake of […], we were limited by solubility and could only determine uptake up to a concentration of 1 mM. […] Therefore, no kinetic constants could be calculated for PFDA.
Figure 5. Kinetics of NTCP-mediated PFOA and PFNA uptake. Uptake of increasing concentrations of (A) perfluorooctanoic acid (PFOA) or (B) perfluorononanoic acid (PFNA) was measured at 37 °C for 20 (PFOA) or 30 s (PFNA) in NTCP-expressing HEK293 cells in sodium-containing or sodium-free buffer and corrected for protein. Net uptake was calculated by subtracting uptake in the sodium-free medium from uptake in the sodium-containing medium. Values are mean ± SD of three independent experiments parformed in triplicates. Curves were fit using the Michaelis–Menten equation in GraphPad Prism V9.

[3] = humans; cited from earlier work
[4] = design: method as in PMID 33201517, PMID 18353799; settings: laboratory rodents; cited from earlier work
[5] = design: method as in PMID 33201517; settings: laboratory mice and non-human primates; cited from earlier work
[6] = competitive inhibition fit, taurocholate uptake 15 s, 37 °C, 0, 10 and 100 μM PFCA, table: 95% CI in parentheses, read-out: Ki
[7] = in presence of 10 μM PFCA, 95% CI in parentheses
[8] = in presence of 100 μM PFCA, 95% CI in parentheses

| SMILES | Km (NTCP) [µM] | IC50 [1] [µM] | Vmax of taurocholate uptake [2, 7] | Vmax of taurocholate uptake [2, 8] | type of inhibition of NTCP-mediated taurocholate uptake [2] | transport by NTCP (substrate, words) (human NTCP) | also measured |
| --- | --- | --- | --- | --- | --- | --- | --- |
| O=C(O)C(F)(F)C(F)(F)C(F)(F)C(F)(F)C(F)(F)C(F)(F)C(F)(F)C(F)(F)C(F)(F)C(F)(F)F [perfluoroundecanoic acid] | – | – | – | – | – | – | statistically significant inhibition of taurocholate uptake [1]: statistically significant inhibitors at 10 μM, but to a lesser extent |
| O=S(=O)(O)C(F)(F)C(F)(F)C(F)(F)C(F)(F)C(F)(F)C(F)(F)F [PFHxS, perfluorohexane sulfonate] | 112 | – | – | – | – | – | – |
| C[C@H](CCC(=O)NCCS(=O)(=O)O)[C@H]1CC[C@H]2[C@@H]3[C@H](O)C[C@@H]4C[C@H](O)CC[C@]4(C)[C@H]3C[C@H](O)[C@]12C [taurocholate, reference compound] | – | – | – | – | – | – | Vmax of taurocholate uptake ([2]; concentration of PFCA 0 (control of each PFCA series), 95% CI in parentheses): 2.9 (2.7–3.2) nmol/mg·min and 3.2 (2.9–3.4) nmol/mg·min and 3.5 (3.2–3.8) nmol/mg·min; Km ([2]; concentration of PFCA 0 (control of each PFCA series), 95% CI in parentheses, read-out: Km of taurocholate uptake): 12 µM and 16 µM |
| O=C(O)C(F)(F)C(F)(F)C(F)(F)C(F)(F)C(F)(F)C(F)(F)C(F)(F)C(F)(F)F [PFNA, perfluorononanoic acid] | – | 7.5 | 3.5 (3.2–3.7) nmol/mg·min | 3.1 (2.5–4.1) nmol/mg·min | competitive inhibitors | can transport | inhibition of NTCP-mediated taurocholate uptake [1]: 60–70%; Ki [2, 6]: 12.3 µM and 12 µM; Vmax of sodium-dependent NTCP-mediated PFCA uptake (human NTCP; net sodium-dependent uptake, 37 °C, 20 s (PFOA) or 30 s (PFNA)): 670 ± 391 nmol/mg/min; Km (human NTCP; net sodium-dependent uptake, 37 °C, 20 s (PFOA) or 30 s (PFNA), PFNA value a rough estimate, saturation not reached, read-out: Km of sodium-dependent NTCP-mediated PFCA uptake): 5300 ± 3500 µM |
| O=S(=O)(O)C(F)(F)C(F)(F)C(F)(F)C(F)(F)C(F)(F)C(F)(F)C(F)(F)C(F)(F)F [PFOS, perfluorooctane sulfonate] | 130 | – | – | – | – | – | – |
| O=C(O)C(F)(F)C(F)(F)C(F)(F)F [PFBA, perfluorobutanoic acid] | – | – | – | – | – | – | serum elimination half-life [3]: a few days; serum elimination half-life [4]: a few hours |
| O=C(O)C(F)(F)C(F)(F)C(F)(F)C(F)(F)C(F)(F)C(F)(F)C(F)(F)C(F)(F)C(F)(F)F [PFDA, Perfluorodecanoic acid] | – | 9.5 | 3.2 (3.0–3.4) nmol/mg·min | 2.5 (2.2–3.0) nmol/mg·min | competitive inhibitors | can transport | inhibition of NTCP-mediated taurocholate uptake [1]: 60–70%; Ki [2, 6]: 8.3 µM; saturation of sodium-dependent uptake (human NTCP; concentration range tested up to 300 mM (so in the source), 1 min): did not reach saturation |
| O=S(=O)(O)C(F)(F)C(F)(F)C(F)(F)C(F)(F)F [PFBS, perfluorobutane sulfonate] | 39.6 | – | – | – | – | – | – |
| O=C(O)C(F)(F)C(F)(F)C(F)(F)C(F)(F)C(F)(F)C(F)(F)C(F)(F)F [PFOA, perfluorooctanoic acid] | – | 28 | 3.0 (2.8–3.2) nmol/mg·min | 2.8 (2.6–3.1) nmol/mg·min | competitive inhibitors | can transport | statistically significant inhibition of taurocholate uptake [1]: statistically significant inhibitors at 10 μM, but to a lesser extent; Ki [2]: 17 µM; Ki value lower than Km value (human NTCP; Ki (taurocholate uptake inhibition) versus Km (own transport)): about 100 fold; serum elimination half-life [3]: several years; serum elimination half-life [5]: days to weeks |
